Test results reported in PubChem BioAssay (NCI).
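Values below derive from 48-hour exposures of cells grown in 96-well plates, with endpoints linearly interpolated between the two concentrations bracketing the appropriate inhibition level. At the GI50, growth is halved. The concentration for full growth arrest is given as TGI.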

How the values were obtained:
Assay in all cases: inhibition of tumour cell growth, NCI panel, 48 h
[1] = tested on: NCI-H522 lung
[2] = tested on: TK-10 renal
[3] = tested on: LOX IMVI melanoma
[4] = tested on: SF-295 CNS
[5] = tested on: NCI-H226 lung
[6] = tested on: DU-145 prostate
[7] = tested on: U251 CNS
[8] = tested on: IGROV1 ovarian
[9] = tested on: UACC-257 melanoma
[10] = tested on: HT29 colon
[11] = tested on: OVCAR-5 ovarian
[12] = tested on: RXF 393 renal
[13] = tested on: SK-MEL-5 melanoma
[14] = tested on: SK-MEL-2 melanoma
[15] = tested on: MDA-N
[16] = tested on: MDA-MB-435
[17] = tested on: EKVX NSCLC
[18] = tested on: ACHN renal
[19] = tested on: M14 melanoma
[20] = tested on: OVCAR-8 ovarian
[21] = tested on: K-562 leukemia
[22] = tested on: HCT-15 colon
[23] = tested on: RPMI-8226 leukemia
[24] = tested on: HL-60(TB) leukemia
[25] = tested on: A549 NSCLC
[26] = tested on: OVCAR-3 ovarian
[27] = tested on: KM12 colon
[28] = tested on: SNB-19 CNS
[29] = tested on: PC-3 prostate
[30] = tested on: SN12C renal
[31] = tested on: COLO 205 colon
[32] = tested on: SF-539 CNS
[33] = tested on: CCRF-CEM leukemia
[34] = tested on: UO-31 renal
[35] = tested on: NCI-H23 lung
[36] = tested on: SR leukemia
[37] = tested on: SK-OV-3 ovarian
[38] = tested on: UACC-62 melanoma
[39] = tested on: CAKI-1 renal
[40] = tested on: NCI-H460 lung
[41] = tested on: NCI/ADR-RES ovarian
[42] = tested on: MCF7 breast
[43] = tested on: BT-549 breast
[44] = tested on: HCT-116 colon
[45] = tested on: MALME-3M melanoma
[46] = tested on: SW-620 colon
[47] = tested on: MOLT-4 leukemia
[48] = tested on: MDA-MB-231 breast
[49] = tested on: SF-268 CNS
[50] = tested on: HOP-62 NSCLC
[51] = tested on: HS 578T breast
[52] = tested on: SK-MEL-28 melanoma
[53] = tested on: HOP-92 NSCLC
[54] = tested on: 786-0 renal
[55] = tested on: OVCAR-4 ovarian
[56] = tested on: HCC-2998 colon
[57] = tested on: A498 renal
[58] = tested on: T-47D breast
[59] = tested on: SNB-75 CNS

In the case of `Oc1ccc(-c2nc3ccc(Br)cc3s2)cc1`, the TGI [1] is reported as 22.9 µM, the TGI [2] is reported as 35.9 µM and the TGI [3] is reported as 30.1 µM. It also gave a TGI [4] of 33 µM, a TGI [5] of 39.9 µM and a TGI [6] of 36.7 µM. It also gave a TGI [7] of 50.8 µM, a TGI [8] of 33.6 µM and a TGI [9] of 51.1 µM. It also gave a TGI [10] of 50.5 µM, a TGI [11] of 63.8 µM and a TGI [12] greater than 100 µM. For the same compound, the TGI [13] was 60.2 µM, the TGI [14] was 33.3 µM and the TGI [15] was greater than 100 µM. The TGI [16] was 53.4 µM, the TGI [17] was 28.6 µM and the TGI [18] was 62.8 µM. The TGI [19] was 39.6 µM, the TGI [20] was 49.3 µM and the TGI [21] was 73.1 µM. It also gave a TGI [22] of 67.5 µM, a TGI [23] of 40.2 µM and a TGI [24] of 56.3 µM. The TGI [25] was 68.9 µM, the TGI [26] was 31.8 µM and the TGI [27] was 41.6 µM. For the same compound, the TGI [28] was 85.2 µM, the TGI [29] was 54.8 µM and the TGI [30] was 49.6 µM. For the same compound, the TGI [31] was 33.7 µM, the TGI [32] was 35.8 µM and the TGI [33] was 16.5 µM. The TGI [34] was 44.4 µM, the TGI [35] was 76 µM and the TGI [36] was 36.2 µM. For the same compound, the TGI [37] was 51.4 µM, the TGI [38] was 27.4 µM and the TGI [39] was 33.7 µM. It also gave a TGI [40] of 52.8 µM, a TGI [41] of 67.3 µM and a TGI [42] of 74.5 µM. For the same compound, the TGI [43] was 44.7 µM, the TGI [44] was 64.1 µM and the TGI [45] was 90.9 µM. It also gave a TGI [46] greater than 100 µM, a TGI [47] greater than 100 µM and a TGI [48] of 45 µM. For the same compound, the TGI [49] was 57.4 µM.
Work on `Nc1ncnc2c1[nH]c(=O)n2-c1ccccc1` yielded a TGI [50] greater than 100 µM, a TGI [2] greater than 100 µM and a TGI [3] greater than 100 µM. The TGI [4] was greater than 100 µM, the TGI [51] was greater than 100 µM and the TGI [8] was greater than 100 µM. The TGI [52] was greater than 100 µM, the TGI [9] was greater than 100 µM and the TGI [10] was greater than 100 µM. The TGI [11] was greater than 100 µM, the TGI [13] was greater than 100 µM and the TGI [53] was greater than 100 µM. It also gave a TGI [14] greater than 100 µM, a TGI [15] greater than 100 µM and a TGI [16] greater than 100 µM. It also gave a TGI [17] greater than 100 µM, a TGI [18] greater than 100 µM and a TGI [54] greater than 100 µM. The TGI [19] was greater than 100 µM, the TGI [20] was greater than 100 µM and the TGI [55] was greater than 100 µM. For the same compound, the TGI [21] was greater than 100 µM, the TGI [22] was greater than 100 µM and the TGI [23] was greater than 100 µM. The TGI [24] was greater than 100 µM, the TGI [25] was greater than 100 µM and the TGI [26] was greater than 100 µM. For the same compound, the TGI [28] was greater than 100 µM, the TGI [29] was greater than 100 µM and the TGI [30] was greater than 100 µM. For the same compound, the TGI [31] was greater than 100 µM, the TGI [32] was greater than 100 µM and the TGI [34] was greater than 100 µM. It also gave a TGI [56] greater than 100 µM, a TGI [35] greater than 100 µM and a TGI [36] greater than 100 µM. For the same compound, the TGI [37] was greater than 100 µM, the TGI [38] was greater than 100 µM and the TGI [39] was greater than 100 µM. It also gave a TGI [40] greater than 100 µM, a TGI [41] greater than 100 µM and a TGI [42] greater than 100 µM. The TGI [43] was greater than 100 µM, the TGI [44] was greater than 100 µM and the TGI [45] was greater than 100 µM. It also gave a TGI [46] greater than 100 µM, a TGI [47] greater than 100 µM and a TGI [57] greater than 100 µM. For the same compound, the TGI [49] was greater than 100 µM.
Work on `CCN(C(=O)N1CCN(c2cc3c(cc2F)c(=O)c(C(=O)O)cn3C2CC2)CC1)c1nc(-c2ccc(Cl)cc2)cs1` yielded a GI50 [1] of 1.8 µM, a TGI [1] greater than 26.5 µM and a GI50 [50] of 1.6 µM. It also gave a TGI [50] of 17.7 µM, a GI50 [2] of 2.89 µM and a TGI [2] greater than 51.9 µM. The GI50 [3] was 0.37 µM, the TGI [3] was 1.63 µM and the GI50 [4] was 0.888 µM. The TGI [4] was 6 µM, the GI50 [5] was 1.79 µM and the TGI [5] was 5.2 µM. For the same compound, the GI50 [51] was 1.26 µM, the TGI [51] was 13 µM and the GI50 [6] was 1.83 µM. It also gave a TGI [6] greater than 100 µM, a GI50 [7] of 1.15 µM and a TGI [7] of 29.7 µM. For the same compound, the GI50 [8] was 0.538 µM, the TGI [8] was 1.79 µM and the GI50 [52] was 1.91 µM. The TGI [52] was greater than 100 µM, the GI50 [9] was 2.53 µM and the TGI [9] was 7.3 µM. For the same compound, the GI50 [10] was 1.06 µM, the TGI [10] was greater than 100 µM and the GI50 [11] was 2.62 µM. The TGI [11] was greater than 100 µM, the GI50 [12] was 0.978 µM and the TGI [12] was 7.51 µM. It also gave a GI50 [13] of 1.99 µM, a TGI [13] of 15.9 µM and a GI50 [53] of 0.825 µM. For the same compound, the TGI [53] was 4.8 µM, the GI50 [14] was 2.12 µM and the TGI [14] was 5.39 µM. The GI50 [16] was 1.21 µM, the TGI [16] was 7.03 µM and the GI50 [17] was 2.54 µM. The TGI [17] was greater than 100 µM, the GI50 [18] was 1.24 µM and the TGI [18] was 10.1 µM. For the same compound, the GI50 [54] was 2.41 µM, the TGI [54] was 15.4 µM and the GI50 [19] was 2.12 µM. The TGI [19] was greater than 100 µM, the GI50 [20] was 1.31 µM and the TGI [20] was greater than 100 µM. It also gave a GI50 [58] of 1.99 µM, a TGI [58] greater than 100 µM and a GI50 [55] of 1.48 µM. It also gave a TGI [55] greater than 57.1 µM, a GI50 [21] of 1.13 µM and a TGI [21] greater than 100 µM. The GI50 [22] was 0.967 µM, the TGI [22] was greater than 100 µM and the GI50 [23] was 0.838 µM. The TGI [23] was 3.17 µM, the GI50 [24] was 0.669 µM and the TGI [24] was 1.77 µM. For the same compound, the GI50 [25] was 1.01 µM, the TGI [25] was greater than 100 µM and the GI50 [26] was 1.22 µM. It also gave a TGI [26] greater than 100 µM, a GI50 [27] of 1.29 µM and a TGI [27] greater than 100 µM. It also gave a GI50 [28] of 1.09 µM, a TGI [28] of 49.5 µM and a GI50 [29] of 0.858 µM. It also gave a TGI [29] greater than 26 µM, a GI50 [30] of 0.991 µM and a TGI [30] greater than 100 µM. The GI50 [31] was 2 µM, the TGI [31] was 6.17 µM and the GI50 [32] was 1.02 µM. The TGI [32] was 3.74 µM, the GI50 [33] was 2.45 µM and the TGI [33] was greater than 100 µM. For the same compound, the GI50 [34] was 0.986 µM, the TGI [34] was greater than 20.5 µM and the GI50 [56] was 2.83 µM. The TGI [56] was greater than 28.6 µM, the GI50 [35] was 1.56 µM and the TGI [35] was 8.45 µM. The GI50 [36] was 0.272 µM, the TGI [36] was 0.897 µM and the GI50 [37] was 1.83 µM. The TGI [37] was 6.46 µM, the GI50 [59] was 1.37 µM and the TGI [59] was 9.32 µM. For the same compound, the GI50 [38] was 1.13 µM, the TGI [38] was 3.55 µM and the GI50 [39] was 2.17 µM. The TGI [39] was 11.4 µM, the GI50 [40] was 0.96 µM and the TGI [40] was greater than 100 µM. For the same compound, the GI50 [41] was 2.07 µM, the TGI [41] was 13.7 µM and the GI50 [42] was 2.97 µM. For the same compound, the TGI [42] was greater than 100 µM, the GI50 [43] was 1.02 µM and the TGI [43] was 5.61 µM. The GI50 [44] was 1.1 µM, the TGI [44] was greater than 100 µM and the GI50 [45] was 1.38 µM. The TGI [45] was 5.95 µM, the GI50 [46] was 1.83 µM and the TGI [46] was greater than 100 µM. For the same compound, the GI50 [47] was 0.542 µM, the TGI [47] was 3.67 µM and the GI50 [48] was 1.69 µM. For the same compound, the TGI [48] was 6.35 µM, the GI50 [57] was 0.0298 µM and the TGI [57] was 1.6 µM. For the same compound, the GI50 [49] was 1.28 µM and the TGI [49] was greater than 100 µM.
